Results published in patent US7307044B2, “3-biphenyl-substituted-3-substituted-4-ketolactam and ketolactone and their utilization as pesticide” (Bayer CropScience AG, priority 2001, dated 2007).

Legend:
[1] = test system: larvae of the mustard beetle (Phaedon cochleariae); assay: Phaedon larvae test; format: in vivo; conditions: cabbage leaves dipped
Procedure: (§1) Phaedon Larvae Test Solvent: 7 parts by weight of dimethylformamide Emulsifier: 2 parts by weight of alkylaryl polyglycol ether To produce a suitable preparation of active compound, 1 part by weight of active compound is mixed with the stated amounts of solvent and emulsifier, and the concentrate is diluted with emulsifier-containing water to the desired concentration. Cabbage leaves (Brassica oleracea) are treated by being dipped into the preparation of active compound of the desired concentration and are populated with larvae of the mustard beetle (Phaedon cochleariae) while the leaves are still moist. After the desired period of time, the kill in % is determined. 100% means that all beetle larvae have been killed; 0% means that none of the beetle larvae have been killed.

[2] = test system: green peach aphid (Myzus persicae); assay: Myzus test; format: in vivo; conditions: 500 ppm, cabbage leaves dipped
Procedure: as §1, with “Myzus” for “Phaedon Larvae”, “oleracea) which are heavily infested by the green peach aphid (Myzus persicae)” for “oleracea)”, “concentration.” for “concentration and are populated with larvae of the mustard beetle (Phaedon cochleariae) while the leaves are still moist.”, “aphids” for “beetle larvae”

[3] = test system: caterpillars of the armyworm (Spodoptera frugiperda); assay: Spodoptera frugiperda test; format: in vivo; conditions: cabbage leaves dipped
Procedure: as §1, with “Spodoptera frugiperda” for “Phaedon Larvae”, “caterpillars” for “larvae”, “armyworm (Spodoptera frugiperda)” for “mustard beetle (Phaedon cochleariae)”, “caterpillars” for “beetle larvae”

[4] = test system: greenhouse red spider mite (Tetranychus urticae); assay: Tetranychus test (OP-resistent/dip treatment); format: in vivo; conditions: 100 ppm, bean plants dipped
Procedure: Tetranychus Test (OP-Resistent/Dip Treatment)
Solvent: 7 parts by weight of dimethylformamide
Emulsifier: 2 parts by weight of alkylaryl polyglycol ether
To produce a suitable preparation of active compound, 1 part by weight of active compound is mixed with the stated amounts of solvent and emulsifier, and the concentrate is diluted with emulsifier-containing water to the desired concentration.
Bean plants (Phaseolus vulgaris) which are heavily infested by all stages of the greenhouse red spider mite (Tetranychus urticae) are dipped into a preparation of active compound of the desired concentration.
After the desired period of time, the effect in % is determined. 100% means that all spider mites have been killed; 0% means that none of the spider mites have been killed.

Alopecurus = assay: Post-emergence test (greenhouse); format: in vivo; conditions: 250 g ai/ha, after three weeks
Procedure: (§2) Solvent: 5 parts by weight of acetone
(§3) Emulsifier: 1 part by weight of alkylaryl polyglycol ether
(§4) To produce a suitable preparation of active compound, 1 part by weight of active compound is mixed with the stated amount of solvent, the stated amount of emulsifier is added and the concentrate is diluted with water to the desired concentration.
(§5) Test plants of a height of 5-15 cm are sprayed with the preparation of active compound such that the particular amounts of active compound desired are applied per unit area. The concentration of the spray liquor is chosen such that the particular amounts of active compound desired are applied in 1000 l of water/ha.
(§6) After three weeks, the degree of damage to the plants is rated in % damage in comparison to the development of the untreated control.
(§7) The figures denote: • 0%=no effect (like untreated control) • 100%=total destruction

Avena fatua = assay: Post-emergence test (greenhouse); format: in vivo; conditions: 250 g ai/ha, after three weeks
Procedure: as §2, §3, §4, §5, §6, §7

Echinochloa = assay: Post-emergence test (greenhouse); format: in vivo; conditions: 250 g ai/ha, after three weeks
Procedure: as §2, §3, §4, §5, §6, §7

Setaria = assay: Post-emergence test (greenhouse); format: in vivo; conditions: 250 g ai/ha, after three weeks
Procedure: as §2, §3, §4, §5, §6, §7

[5] = test system: caterpillars of the diamondback moths (Plutella xylostella); assay: Plutella test; format: in vivo; conditions: 500 ppm, cabbage leaves dipped
Procedure: as §1, with “Plutella” for “Phaedon Larvae”, “caterpillars” for “larvae”, “diamondback moths (Plutella xylostella)” for “mustard beetle (Phaedon cochleariae)”, “caterpillars” for “beetle larvae”

Plasmopara viticola = assay: Plasmopara test (grapevine)/protective; format: in vivo; conditions: protective, 100 g/ha, evaluation 6 days after inoculation
Procedure: Plasmopara Test (Grapevine)/Protective Solvents: 24.5 parts by weight of acetone • 24.5 parts by weight of dimethylacetamide Emulsifier: 1.0 part by weight of alkylaryl polyglycol ether To produce a suitable preparation of active compound, 1 part by weight of active compound is mixed with the stated amounts of solvent and emulsifier, and the concentrate is diluted with water to the desired concentration. To test for protective activity, young plants are sprayed with the preparation of active compound at the stated application rate. After the spray coating has dried on, the plants are inoculated with an aqueous spore suspension of Plasmopara viticola and then remain in an incubation cabin at 20° C. and 100% relative atmospheric humidity for 1 day. The plants are then placed in a greenhouse at about 21° C. and about 90% atmospheric humidity for 4 days. The plants are then moistened and placed in an incubation cabin for 1 day.

[6] = test system: caterpillars of the armyworm (Spodoptera exigua); assay: Spodoptera exigua test; format: in vivo; conditions: 500 ppm, cabbage leaves dipped
Procedure: as §1, with “Spodoptera exigua” for “Phaedon Larvae”, “caterpillars” for “larvae”, “armyworm (Spodoptera exigua)” for “mustard beetle (Phaedon cochleariae)”, “caterpillars” for “beetle larvae”

Sugar beet = assay: Post-emergence test (greenhouse); format: in vivo; conditions: 250 g ai/ha, after three weeks
Procedure: as §2, §3, §4, §5, §6, §7

physchem = format: physicochemical; conditions: for log P: pH 2.3
Procedure: The stated log P values were determined in accordance with EEC Directive 79/831 Annex V.A8 by HPLC (High Performance Liquid Chromatography) using a reversed-phase column (C 18). Temperature: 43° C. • (a) Mobile phases for the determination in the acidic range: 0.1% aqueous phosphoric acid, acetonitrile; linear gradient from 10% acetonitrile to 90% acetonitrile. • (b) Mobile phases for the determination in the neutral range: 0.01 molar aqueous phosphate buffer solution, acetonitrile; linear gradient from 10% acetonitrile to 90% acetonitrile.
Calibration was carried out using unbranched alkan-2-ones (of 3 to 16 carbon atoms) with known log P values (determination of the log P values by the retention times using linear interpolation between two successive alkanones).

Row | SMILES | Kill rate in % after 7 d ([1]; 500 ppm) [%] | Kill rate in % after 6 d [2] [%] | Kill rate in % after 7 d ([3]; 500 ppm) [%] | Kill rate in % after 7 d [4] [%] | log P (physchem) | also measured
1 | Cc1ccc(-c2cccc(Cl)c2)cc1C1(Cl)C(=O)NC(C)(C)C1=O (centres unmarked) [Ex. I-1-3] | 100 |  |  |  |  | 
2 | Cc1cc(C)c(C2(Cl)C(=O)NC3(CCCOC3)C2=O)cc1-c1ccc(Cl)cc1 (centres unmarked) [Ex. I-1-7] | 100 | 100 | 100 | 98 |  | degree of damage to the plants in % damage (Alopecurus): 90%; degree of damage to the plants in % damage (Avena fatua): 95%; degree of damage to the plants in % damage (Echinochloa): 100%; degree of damage to the plants in % damage (Setaria): 100%
3 | CCOC1CCC2(CC1)NC(=O)C(Cl)(c1c(C)cc(-c3ccc(Cl)cc3)cc1Cl)C2=O (centres unmarked) [Ex. I-1-9] | 100 | 95 |  |  |  | degree of damage to the plants in % damage (Alopecurus): 95%; degree of damage to the plants in % damage (Avena fatua): 100%; degree of damage to the plants in % damage (Echinochloa): 100%; degree of damage to the plants in % damage (Setaria): 100%
4 | COC1CCC2(CC1)NC(=O)C(Cl)(c1cc(-c3cccc(Cl)c3)ccc1Cl)C2=O (centres unmarked) [Ex. I-1-12] | 100 |  | 100 | 100 |  | Kill rate in % after 7 d [5]: 100%; % efficacy (Plasmopara viticola): 94%
5 | COC1CCC2(CC1)NC(=O)C(Cl)(c1cc(-c3ccc(Cl)c(Cl)c3)ccc1C)C2=O (centres unmarked) [Ex. I-1-13] | 100 | 100 | 100 | 95 |  | Kill rate in % after 7 d [5]: 100%; Kill rate in % after 7 d [6]: 100%; degree of damage to the plants in % damage (Alopecurus): 95%; degree of damage to the plants in % damage (Avena fatua): 90%; degree of damage to the plants in % damage (Echinochloa): 100%; degree of damage to the plants in % damage (Setaria): 90%; % efficacy (Plasmopara viticola): 94%
6 | Cc1ccc(-c2ccc(Cl)cc2)cc1C1(Cl)C(=O)NC2(CCOCC2)C1=O (centres unmarked) [Ex. I-1-14] | 100 | 100 | 100 | 99 |  | degree of damage to the plants in % damage (Alopecurus): 80%; degree of damage to the plants in % damage (Avena fatua): 100%; degree of damage to the plants in % damage (Echinochloa): 100%; degree of damage to the plants in % damage (Setaria): 100%; degree of damage to the plants in % damage (Sugar beet): 0%; % efficacy (Plasmopara viticola): 100%
7 | Cc1ccc(-c2ccc(Cl)c(Cl)c2)cc1C1(Cl)C(=O)NC(C)(C)C1=O (centres unmarked) [Ex. I-1-15] | 100 | 95 | 100 | 99 |  | Kill rate in % after 7 d [5]: 100%; Kill rate in % after 7 d [6]: 100%
8 | Cc1ccc(-c2ccc(Cl)cc2)cc1C1(Cl)C(=O)OC(C)(C)C1=O (centres unmarked) [Ex. I-2-1] |  |  |  | 98 |  | Kill rate in % after 7 d ([1]; 1000 ppm): 100%; Kill rate in % after 7 d ([3]; 1000 ppm): 100%; chromatographic logP (physchem; pH 2.5): 4.8
9 | Cc1ccc(-c2ccc(Cl)cc2)cc1C1(Cl)C(=O)SC2(CCCCC2)C1=O (centres unmarked) [Ex. I-3-1] | 100 |  |  |  |  | 
10 | Cc1ccc(-c2ccc(Cl)cc2)cc1C1(Cl)C(=O)OC(C)(C(C)C)C1=O (centres unmarked) [I-2-5] |  |  |  |  | log P 5.61 | 
11 | Cc1cc(C)c(C2(Cl)C(=O)OC3(CCCC3)C2=O)cc1-c1ccc(Cl)cc1 (centres unmarked) [I-2-6] |  |  |  |  | log P 5.56 | 
12 | CCc1ccc(-c2ccc(Cl)cc2)cc1C1(Cl)C(=O)OC(C)(C)C1=O (centres unmarked) [I-2-7] |  |  |  |  | log P 5.05 | 
13 | Cc1ccc(-c2cccc(F)c2)cc1C1(Cl)C(=O)OC(C)(C)C1=O (centres unmarked) [I-2-11] |  |  |  |  | log P 4.30 | 
14 | CCOC1CCC2(CC1)OC(=O)C(Cl)(c1c(C)cc(-c3ccc(Cl)cc3)cc1CC)C2=O (centres unmarked) [I-2-13] |  |  |  |  | log P 5.59 | 
15 | Cc1cc(-c2ccc(Cl)cc2)cc(C)c1C1(Cl)C(=O)OC(C)(C)C1=O (centres unmarked) [I-2-14] |  |  |  |  | log P 5.11 | 
16 | Cc1cc(-c2ccc(Cl)cc2)cc(C)c1C1(Cl)C(=O)OC2(CCCOC2)C1=O (centres unmarked) [I-2-17] |  |  |  |  | log P 4.91 | 
